How the values were obtained:
porcine sclera = experiment: Diffuse transmission through excised porcine sclera before and after submersion in clarifying agent; conditions: maximum increase, at 750 nm, range 350-750 nm
Procedure: Porcine eyes were enucleated immediately post-mortem, and were transported to the laboratory in a wet gauze pad, held at 4° C. during transport in a well-insulated cooler. Each eye was inflated with saline. Limbal conjunctiva and Tenons capsule were dissected and excised using a pair of blunt Wescott scissors. A No. 64 Beaver blade was then used to outline 20 mm×20 mm sections of the sclera from the limbus to the equator of the globe. Incisions were deepened to the supra-choroidal space. Sections of sclera were then lifted off the intact choroid and ciliary body. Scleral thickness was measured and was determined to be 1.65 mm on average.
Three prepared sections of sclera were each then placed between quartz slides, and then between two flat aluminum plates. The tissue sample assembly was then fixed against the input port of a diffuse reflectance accessory (integrating sphere) of a Varian Cary 5E™ UV-Vis-NIR spectrophotometer, and diffuse transmission was measured for wavelengths ranging from 350 nm to 750 nm. The three tissue samples were then submerged in separate containers of glycerol, the first being submerged for 5 minutes, the second for 10 minutes, and the third for 15 minutes. Each sample was then again placed in the tissue assembly and was fixed against the input port of the diffuse reflectance accessory of the spectrophotometer, and the diffuse transmission was measured again over the same wavelength range as above. These measurements were also carried out, using three other scleral samples, and diatrizoate meglumine acid as the IRIM agent.

sclera = type: in vivo, rabbit; conditions: for signs of inflammation on follow up examination: rabbit, in vivo; for time for sclera to turn clear: topical drops on exposed sclera, conjunctiva surgically separated
Procedure: In order to assess the longitudinal effects of topical administration of glycerol or diatrizoate meglumine acid on the sclera, in-vivo experiments were carried out on two rabbits, and the eyes were examined for signs of inflammation once a day for approximately 1 week.
Each rabbit was put under anesthesia using an intra-muscular injection of Rompin® and Ketamine®. The conjunctiva serves as the permeability barrier for the sclera, and therefore, the conjunctiva was surgically separated from the sclera and the distal surface of the sclera was exposed. Topical drops of glycerol were administered on one eye, and of diatrizoate meglumine acid in the contra-lateral eye, for both rabbits. In the case of glycerol, the sclera turned clear, almost instantaneously (in less than 5 seconds), whereas in the case of diatrizoate meglumine acid, the sclera turned clear in approximately 1 minute. The conjunctiva was stretched over the sclera, again, and stay sutures were used to re-attach the conjunctiva to the limbal region. Ocumycing was administered topically to both eyes which had undergone surgery, to prevent infection. After approximately 5-10 minutes, the sclera in both eyes became opaque, again.

human skin = conditions: approximately 8 minutes after topical administration; stratum corneum tape-stripped; 480-800 nm
Procedure: Two skin surfaces on the forearm were shaved and cleaned prior to measurements. A tape-strip method was used to remove the stratum corneum. […] The topical drugs administered formed an approximate circle of 1 cm in diameter. The drugs were left to diffuse into the tissue for approximately 8 minutes.
Surface reflectance measurements were made immediately after tape stripping of the skin (prior to topical administration of the drugs), and subsequently, approximately 8 minutes after topical administration of the drugs. A CSI Portable Diffuse Reflectance Spectrometer, developed by Canfield Scientific Instruments, Inc. (Fairfield, N.J.), was used for these surface measurements. […] One leg of the bifurcated fiber optic bundle is coupled to the lamp and the other leg is coupled to the spectrometer. The joined end of the fiber bundle (approximately 3 mm in diameter) was placed in contact with the skin surface from which measurements were made. The measurements were made across a 330 nm to 840 nm spectral range, with a 0.5 nm resolution. The integration time for the measurements was set at 50 kHz.
The tape stripping of the skin causes a mild irritation of the skin, leading to a transient erythema.

edematous corneas = conditions: glycerol applied topically in concentrations from 50% to 100%; cited from earlier work
[1] = Optical transmission characteristics of the agent in a cuvette (UV-Vis-NIR spectrophotometer); type: physicochemical
Procedure: Diatrizoate meglumine acid, which is commercially known as Hypaque®, is a radiographic injection solution. […] In an experiment, a cuvette was filled with diatrizoate meglumine acid and its optical transmission characteristics were evaluated using a Varian CARY 5E™ UV-Vis-NIR spectrophotometer.

SMILES	increase in diffuse transmission through the sclera (porcine sclera; submerged 5 minutes)	increase in diffuse transmission through the sclera (porcine sclera; submerged 10 minutes)	increase in diffuse transmission through the sclera (porcine sclera; submerged 15 minutes)	signs of inflammation on follow up examination (sclera)	time for sclera to turn clear (sclera)	increase in absorbance of tissue, in-vivo (human skin)	clearing of edematous corneas following topical administration (edematous corneas)	optical transmission ([1]; wavelengths above 400 nm)	optical transmission ([1]; wavelengths below approximately 400 nm)
OCC(O)CO [glycerol]	up to 240%	≤ 660%	≤ 1090%	no signs of inflammation	less than 5 seconds	up to 60.5%	effective in clearing edematous corneas, within two minutes	–	–
CC(=O)Nc1c(I)c(NC(C)=O)c(I)c(C(=O)O)c1I.CNC[C@H](O)[C@@H](O)[C@H](O)[C@H](O)CO [diatrizoate meglumine acid]	up to 200%	≤ 395%	≤ 975%	no signs of inflammation	approximately 1 minute	–	–	very high transmission	very low transmission

From patent US8096982B2, “Method and apparatus to enhance optical transparency of biological tissues” (priority 1998, dated 2012)
